Reference: US20250145665A1, “MACROCYCLIC PEPTIDES USEFUL AS MODULATORS OF TNF ALPHA” (Bristol-Myers Squibb Company, priority 2023, published 2025)
Starred links: 1 amine or outer side, 2 acyl side, 3 side chain; linkers in the order of their positions; H or OH if unused. Positions of bridges follow the written chain, without caps; N, C: chain ends. Non-standard residues stand in square brackets, D forms with d. Residues, ends and D or L forms follow the SMILES beside them. *: point of attachment. Bip(4'-NHCO-C6H4-3-CH2COOH) = N[C@@H](Cc1ccc(-c2ccc(NC(=O)c3cccc(CC(=O)O)c3)cc2)cc1)C(=O)O; Bip(4'-NHCO-C6H4-4-CH2COOH) = N[C@@H](Cc1ccc(-c2ccc(NC(=O)c3ccc(CC(=O)O)cc3)cc2)cc1)C(=O)O; X5 = Cn1nc(C(=O)Nc2ccc(-c3ccc(C[C@H](N[*:1])C(=O)[*:2])cc3)cc2)c2ccccc21; Bip(4'-NHBz) = N[C@@H](Cc1ccc(-c2ccc(NC(=O)c3ccccc3)cc2)cc1)C(=O)O; dArg(ω-(2S)-2,3-diOHpropyl) = N=C(NCCC[C@@H](N)C(=O)O)NC[C@H](O)CO; Bip(4'-NH) = O=C([C@H](Cc1ccc(-c2ccc(N[*:3])cc2)cc1)N[*:1])[*:2]; dArg(ω-Bn(3-CH2OH)) = N=C(NCCC[C@@H](N)C(=O)O)NCc1cccc(CO)c1; Indazole3carbonyl(1-CH2COOH) = O=C(O)Cn1nc(C(=O)*)c2ccccc21; Bip(4'-COOH) = N[C@@H](Cc1ccc(-c2ccc(C(=O)O)cc2)cc1)C(=O)O; X7 = N=C(NCCC[C@@H](N[*:1])C(=O)[*:2])NCc1ccc2occc2c1; Ala(morpholin-4-yl) = N[C@@H](CN1CCOCC1)C(=O)O; Benzoyl(4-OCH2COOH) = O=C(O)COc1ccc(C(=O)*)cc1; Bip = N[C@@H](Cc1ccc(-c2ccccc2)cc1)C(=O)O; Cha = N[C@@H](CC1CCCCC1)C(=O)O; Chg = N[C@H](C(=O)O)C1CCCCC1; Tle = CC(C)(C)[C@H](N)C(=O)O; Sar = CNCC(=O)O

These molecules were tested against TNFα (Homo sapiens, UniProt P01375) (assay: TNF-Induced HEK-Blue Assay). Details: not given.
Chain of TNFα (P01375 77-233 limits assumed): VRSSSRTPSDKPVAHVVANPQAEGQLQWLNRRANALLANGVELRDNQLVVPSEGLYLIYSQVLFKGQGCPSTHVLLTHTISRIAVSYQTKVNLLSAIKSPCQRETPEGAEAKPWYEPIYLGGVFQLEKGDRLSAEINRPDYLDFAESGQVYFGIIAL
Assay type: cell-based

Compound	IC50 [µM]
CC[C@H](C)[C@@H]1NC(=O)[C@@H](CCCNC(=N)NCc2cccc(CO)c2)NC(=O)[C@H](CC(=O)O)NC(=O)[C@H](Cc2cnc[nH]2)NC(=O)CN(C)C(=O)[C@H](Cc2ccc(-c3ccc(NC(=O)c4nn(CC(=O)O)c5ccccc45)cc3)cc2)NC(=O)[C@H](Cc2ccc(-c3ccccc3)cc2)NC(=O)[C@H](CC2CCCCC2)NC(=O)CSC[C@@H](C(=O)NCC(N)=O)NC(=O)[C@H](CC(C)C)NC(=O)[C@H](Cc2cnc[nH]2)NC(=O)[C@H](C(C)C)NC(=O)[C@@H]2CCCN2C1=O [Example 477] ({CH2CO}-[Cha][Bip][Bip(4'-NH)](Indazole3carbonyl(1-CH2COOH))[Sar]HD[dArg(ω-Bn(3-CH2OH))]IPVHLCG-NH2; thioether N-13)	< 0.05
CC[C@H](C)[C@@H]1NC(=O)[C@@H](CCCNC(=N)NCc2ccc3occc3c2)NC(=O)[C@H](CC(=O)O)NC(=O)[C@H](Cc2cnc[nH]2)NC(=O)CN(C)C(=O)[C@H](Cc2ccc(-c3ccc(NC(=O)c4nn(CC(=O)O)c5ccccc45)cc3)cc2)NC(=O)[C@H](Cc2ccc(-c3ccccc3)cc2)NC(=O)[C@H](CC2CCCCC2)NC(=O)CSC[C@@H](C(=O)NCC(N)=O)NC(=O)[C@H](CC(C)C)NC(=O)[C@H](Cc2cnc[nH]2)NC(=O)[C@H](C(C)C)NC(=O)[C@@H]2CCCN2C1=O [Example 479] ({CH2CO}-[Cha][Bip][Bip(4'-NH)](Indazole3carbonyl(1-CH2COOH))[Sar]HD[X7]IPVHLCG-NH2; thioether N-13)	< 0.05
CC[C@H](C)[C@@H]1NC(=O)[C@@H](CCCNC(=N)N)NC(=O)[C@H](CC(=O)O)NC(=O)[C@H](Cc2cnc[nH]2)NC(=O)CN(C)C(=O)[C@H](Cc2ccc(-c3ccc(NC(=O)c4ccccc4)cc3)cc2)NC(=O)[C@H](Cc2ccc(-c3ccccc3)cc2)NC(=O)[C@H](CC2CCCCC2)NC(=O)CSC[C@@H](C(=O)NCC(N)=O)NC(=O)[C@H](CC(C)C)NC(=O)[C@H](Cc2cnc[nH]2)NC(=O)[C@H](C2CCCCC2)NC(=O)[C@@H]2CCCN2C1=O [Example 490] ({CH2CO}-[Cha][Bip][Bip(4'-NHBz)][Sar]HD[dR]IP[Chg]HLCG-NH2; thioether N-13)	0.05 to 0.2
CC(C)C[C@@H]1NC(=O)[C@H](Cc2cnc[nH]2)NC(=O)[C@H](C(C)C)NC(=O)[C@@H]2CCCN2C(=O)[C@H](C(C)C)NC(=O)[C@@H](CCCNC(=N)N)NC(=O)[C@H](CC(=O)O)NC(=O)[C@H](Cc2ccccc2)NC(=O)CN(C)C(=O)[C@H](Cc2ccc(-c3ccc(NC(=O)c4ccccc4)cc3)cc2)NC(=O)[C@H](Cc2ccc(-c3ccccc3)cc2)NC(=O)[C@H](CN2CCOCC2)NC(=O)CSC[C@@H](C(=O)NCC(N)=O)NC1=O [Example 491] ({CH2CO}-[Ala(morpholin-4-yl)][Bip][Bip(4'-NHBz)][Sar]FD[dR]VPVHLCG-NH2; thioether N-13)	0.05 to 0.2

Same assay, conditions: HEK-Blue-CD40L cells, NF-kB-driven secreted alkaline phosphatase reporter; TNFα 0.5 ng/ml; 18 h; read-out: TNF induced HEK-Blue assay IC50 value

Compound	IC50 [µM]
CC(C)C[C@@H]1NC(=O)[C@H](CCCNC(=N)N)NC(=O)[C@H](C(C)C)NC(=O)[C@@H]2CCCN2C(=O)[C@H](C(C)C)NC(=O)[C@@H](CCCNC(=N)NC[C@H](O)CO)NC(=O)[C@H](CC(=O)O)NC(=O)[C@@H]2CCCN2C(=O)CN(C)C(=O)[C@H](Cc2ccc(-c3ccc(NC(=O)c4nn(C)c5ccccc45)cc3)cc2)NC(=O)[C@H](Cc2ccc(-c3ccccc3)cc2)NC(=O)[C@H](CN2CCOCC2)NC(=O)CSC[C@@H](C(=O)NCC(N)=O)NC1=O [Example 476] ({CH2CO}-[Ala(morpholin-4-yl)][Bip][X5][Sar]PD[dArg(ω-(2S)-2,3-diOHpropyl)]VPVRLCG-NH2; thioether N-13)	< 0.05
CC[C@H](C)[C@@H]1NC(=O)[C@@H](CCCNC(=N)NCc2cccc(CO)c2)NC(=O)[C@H](CC(=O)O)NC(=O)[C@H](Cc2cnc[nH]2)NC(=O)CN(C)C(=O)[C@H](Cc2ccc(-c3ccc(NC(=O)c4nn(C)c5ccccc45)cc3)cc2)NC(=O)[C@H](Cc2ccc(-c3ccccc3)cc2)NC(=O)[C@H](CC2CCCCC2)NC(=O)CSC[C@@H](C(=O)NCC(N)=O)NC(=O)[C@H](CC(C)C)NC(=O)[C@H](Cc2cnc[nH]2)NC(=O)[C@H](C(C)C)NC(=O)[C@@H]2CCCN2C1=O [Example 478] ({CH2CO}-[Cha][Bip][X5][Sar]HD[dArg(ω-Bn(3-CH2OH))]IPVHLCG-NH2; thioether N-13)	0.05 to 0.2
CC[C@H](C)[C@@H]1NC(=O)[C@@H](CCCNC(=N)N)NC(=O)[C@H](CC(=O)O)NC(=O)[C@H](Cc2cnc[nH]2)NC(=O)CN(C)C(=O)[C@H](Cc2ccc(-c3ccc(NC(=O)c4cccc(CC(=O)O)c4)cc3)cc2)NC(=O)[C@H](Cc2ccc(-c3ccccc3)cc2)NC(=O)[C@H](CN2CCOCC2)NC(=O)CSC[C@@H](C(=O)NCC(N)=O)NC(=O)[C@H](CC(C)C)NC(=O)[C@H](Cc2cnc[nH]2)NC(=O)[C@H](C(C)C)NC(=O)[C@@H]2CCCN2C1=O [Example 481] ({CH2CO}-[Ala(morpholin-4-yl)][Bip][Bip(4'-NHCO-C6H4-3-CH2COOH)][Sar]HD[dR]IPVHLCG-NH2; thioether N-13)	< 0.05
CC[C@H](C)[C@@H]1NC(=O)[C@@H](CCCNC(=N)N)NC(=O)[C@H](CC(=O)O)NC(=O)[C@H](Cc2cnc[nH]2)NC(=O)CN(C)C(=O)[C@H](Cc2ccc(-c3ccc(NC(=O)c4cccc(CC(=O)O)c4)cc3)cc2)NC(=O)[C@H](Cc2ccc(-c3ccc(C(=O)O)cc3)cc2)NC(=O)[C@H](C(C)(C)C)NC(=O)CSC[C@@H](C(=O)NCC(N)=O)NC(=O)[C@H](CC(C)C)NC(=O)[C@H](Cc2cnc[nH]2)NC(=O)[C@H](C(C)C)NC(=O)[C@@H]2CCCN2C1=O [Example 482] ({CH2CO}-[Tle][Bip(4'-COOH)][Bip(4'-NHCO-C6H4-3-CH2COOH)][Sar]HD[dR]IPVHLCG-NH2; thioether N-13)	< 0.05
CC[C@H](C)[C@@H]1NC(=O)[C@@H](CCCNC(=N)N)NC(=O)[C@H](CC(=O)O)NC(=O)[C@H](Cc2cnc[nH]2)NC(=O)CN(C)C(=O)[C@H](Cc2ccc(-c3ccc(NC(=O)c4ccc(CC(=O)O)cc4)cc3)cc2)NC(=O)[C@H](Cc2ccc(-c3ccccc3)cc2)NC(=O)[C@H](CN2CCOCC2)NC(=O)CSC[C@@H](C(=O)NCC(N)=O)NC(=O)[C@H](CC(C)C)NC(=O)[C@H](Cc2cnc[nH]2)NC(=O)[C@H](C(C)C)NC(=O)[C@@H]2CCCN2C1=O [Example 484] ({CH2CO}-[Ala(morpholin-4-yl)][Bip][Bip(4'-NHCO-C6H4-4-CH2COOH)][Sar]HD[dR]IPVHLCG-NH2; thioether N-13)	< 0.05
CC[C@H](C)[C@@H]1NC(=O)[C@@H](CCCNC(=N)N)NC(=O)[C@H](CC(=O)O)NC(=O)[C@H](Cc2cnc[nH]2)NC(=O)CN(C)C(=O)[C@H](Cc2ccc(-c3ccc(NC(=O)c4ccc(CC(=O)O)cc4)cc3)cc2)NC(=O)[C@H](Cc2ccc(-c3ccccc3)cc2)NC(=O)[C@H](C(C)(C)C)NC(=O)CSC[C@@H](C(=O)NCC(N)=O)NC(=O)[C@H](CC(C)C)NC(=O)[C@H](Cc2cnc[nH]2)NC(=O)[C@H](C(C)C)NC(=O)[C@@H]2CCCN2C1=O [Example 485] ({CH2CO}-[Tle][Bip][Bip(4'-NHCO-C6H4-4-CH2COOH)][Sar]HD[dR]IPVHLCG-NH2; thioether N-13)	< 0.05
CC[C@H](C)[C@@H]1NC(=O)[C@@H](CCCNC(=N)N)NC(=O)[C@H](CC(=O)O)NC(=O)[C@H](Cc2cnc[nH]2)NC(=O)CN(C)C(=O)[C@H](Cc2ccc(-c3ccc(NC(=O)c4ccc(CC(=O)O)cc4)cc3)cc2)NC(=O)[C@H](Cc2ccc(-c3ccc(C(=O)O)cc3)cc2)NC(=O)[C@H](C(C)(C)C)NC(=O)CSC[C@@H](C(=O)NCC(N)=O)NC(=O)[C@H](CC(C)C)NC(=O)[C@H](Cc2cnc[nH]2)NC(=O)[C@H](C(C)C)NC(=O)[C@@H]2CCCN2C1=O [Example 486] ({CH2CO}-[Tle][Bip(4'-COOH)][Bip(4'-NHCO-C6H4-4-CH2COOH)][Sar]HD[dR]IPVHLCG-NH2; thioether N-13)	< 0.05
CC[C@H](C)[C@@H]1NC(=O)[C@@H](CCCNC(=N)N)NC(=O)[C@H](CC(=O)O)NC(=O)[C@H](Cc2cnc[nH]2)NC(=O)CN(C)C(=O)[C@H](Cc2ccc(-c3ccc(NC(=O)c4ccc(CC(=O)O)cc4)cc3)cc2)NC(=O)[C@H](Cc2ccc(-c3ccc(C(=O)O)cc3)cc2)NC(=O)[C@H](CN2CCOCC2)NC(=O)CSC[C@@H](C(=O)NCC(N)=O)NC(=O)[C@H](CC(C)C)NC(=O)[C@H](Cc2cnc[nH]2)NC(=O)[C@H](C(C)C)NC(=O)[C@@H]2CCCN2C1=O [Example 487] ({CH2CO}-[Ala(morpholin-4-yl)][Bip(4'-COOH)][Bip(4'-NHCO-C6H4-4-CH2COOH)][Sar]HD[dR]IPVHLCG-NH2; thioether N-13)	< 0.05
CC[C@H](C)[C@@H]1NC(=O)[C@@H](CCCNC(=N)N)NC(=O)[C@H](CC(=O)O)NC(=O)[C@H](Cc2cnc[nH]2)NC(=O)CN(C)C(=O)[C@H](Cc2ccc(-c3ccc(NC(=O)c4ccc(CC(=O)O)cc4)cc3)cc2)NC(=O)[C@H](Cc2ccc(-c3ccc(C(=O)O)cc3)cc2)NC(=O)[C@H](CC2CCCCC2)NC(=O)CSC[C@@H](C(=O)NCC(N)=O)NC(=O)[C@H](CC(C)C)NC(=O)[C@H](Cc2cnc[nH]2)NC(=O)[C@H](C(C)C)NC(=O)[C@@H]2CCCN2C1=O [Example 488] ({CH2CO}-[Cha][Bip(4'-COOH)][Bip(4'-NHCO-C6H4-4-CH2COOH)][Sar]HD[dR]IPVHLCG-NH2; thioether N-13)	< 0.05
CC(C)C[C@@H]1NC(=O)[C@H](Cc2cnc[nH]2)NC(=O)[C@H](C(C)C)NC(=O)[C@@H]2CCCN2C(=O)[C@H](C(C)C)NC(=O)[C@@H](CCCNC(=N)N)NC(=O)[C@H](CC(=O)O)NC(=O)[C@H](Cc2cnc[nH]2)NC(=O)CN(C)C(=O)[C@H](Cc2ccc(-c3ccc(NC(=O)c4ccc(OCC(=O)O)cc4)cc3)cc2)NC(=O)[C@H](Cc2ccc(-c3ccccc3)cc2)NC(=O)[C@H](CC2CCCCC2)NC(=O)CSC[C@@H](C(=O)NCC(N)=O)NC1=O [Example 489] ({CH2CO}-[Cha][Bip][Bip(4'-NH)](Benzoyl(4-OCH2COOH))[Sar]HD[dR]VPVHLCG-NH2; thioether N-13)	< 0.05
CC(C)C[C@@H]1NC(=O)[C@H](Cc2cnc[nH]2)NC(=O)[C@H](C(C)C)NC(=O)[C@@H]2CCCN2C(=O)[C@H](C(C)C)NC(=O)[C@@H](CCCNC(=N)N)NC(=O)[C@H](CC(=O)O)NC(=O)[C@H](Cc2ccccc2)NC(=O)CN(C)C(=O)[C@H](Cc2ccc(-c3ccc(NC(=O)c4ccc(OCC(=O)O)cc4)cc3)cc2)NC(=O)[C@H](Cc2ccc(-c3ccccc3)cc2)NC(=O)[C@H](CN2CCOCC2)NC(=O)CSC[C@@H](C(=O)NCC(N)=O)NC1=O [Example 492] ({CH2CO}-[Ala(morpholin-4-yl)][Bip][Bip(4'-NH)](Benzoyl(4-OCH2COOH))[Sar]FD[dR]VPVHLCG-NH2; thioether N-13)	< 0.05
